Results reported in ChEMBL document CHEMBL1142904, “Modulating effects of a novel skin-lightening agent, alpha-lipoic acid derivative, on melanin production by the formation of DOPA conjugate products” (Bioorg Med Chem, 2007).
The source made the active and inactive calls. No cut-off for these calls is given here.

T1: Tyrosinase (Agaricus bisporus) (UniProt O42713)
T1 sequence (whole entry): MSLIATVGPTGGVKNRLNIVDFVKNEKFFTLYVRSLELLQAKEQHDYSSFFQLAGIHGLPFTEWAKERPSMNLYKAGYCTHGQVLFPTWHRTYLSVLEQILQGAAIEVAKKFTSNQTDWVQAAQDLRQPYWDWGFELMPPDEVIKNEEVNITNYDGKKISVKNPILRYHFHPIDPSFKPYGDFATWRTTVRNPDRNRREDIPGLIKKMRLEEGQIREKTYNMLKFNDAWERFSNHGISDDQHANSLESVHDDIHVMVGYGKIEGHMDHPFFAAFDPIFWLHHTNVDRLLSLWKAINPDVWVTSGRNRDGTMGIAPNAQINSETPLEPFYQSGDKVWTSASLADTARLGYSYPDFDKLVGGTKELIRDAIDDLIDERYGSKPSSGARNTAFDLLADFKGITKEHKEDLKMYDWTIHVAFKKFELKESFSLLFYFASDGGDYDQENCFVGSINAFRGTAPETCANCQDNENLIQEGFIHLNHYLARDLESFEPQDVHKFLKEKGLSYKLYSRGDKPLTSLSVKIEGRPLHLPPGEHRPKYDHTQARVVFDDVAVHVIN

T2: Tyrosinase (Agaricus bisporus, UniProt O42713)
T2 sequence (O42713 whole entry): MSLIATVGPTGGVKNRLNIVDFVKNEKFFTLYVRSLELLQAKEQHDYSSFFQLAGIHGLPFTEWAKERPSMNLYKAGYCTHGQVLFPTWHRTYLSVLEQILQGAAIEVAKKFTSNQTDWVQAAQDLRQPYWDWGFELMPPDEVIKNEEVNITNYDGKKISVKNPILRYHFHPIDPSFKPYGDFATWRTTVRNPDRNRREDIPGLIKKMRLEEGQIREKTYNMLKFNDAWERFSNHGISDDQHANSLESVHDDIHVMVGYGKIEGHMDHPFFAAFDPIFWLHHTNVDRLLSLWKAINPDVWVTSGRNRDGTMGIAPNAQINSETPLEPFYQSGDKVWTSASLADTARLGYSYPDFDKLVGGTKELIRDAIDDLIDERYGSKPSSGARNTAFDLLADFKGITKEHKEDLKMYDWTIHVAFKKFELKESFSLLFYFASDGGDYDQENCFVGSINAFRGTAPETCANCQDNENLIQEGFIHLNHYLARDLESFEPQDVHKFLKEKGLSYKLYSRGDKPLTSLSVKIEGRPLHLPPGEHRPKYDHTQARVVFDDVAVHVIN


Legend:
B16 = experiment: Inhibition of melanin synthesis in mouse B16 cells at 75 uM after 3 days; assay type: functional; conditions: B16, 72 h
[1] = target: T1, Tyrosinase (Agaricus bisporus); experiment: Inhibition of mushroom tyrosinase catalyzed oxidation of L-DOPA assessed as DOPAchrome formation at 120 uM
Tyrosinase = target: T2, Tyrosinase; experiment: Inhibition of mushroom tyrosinase
[2] = target: T1, Tyrosinase (Agaricus bisporus); conditions: 4 uM
Description: Inhibition of mushroom tyrosinase at 4 uM

[3] = substrate: N[C@@H](Cc1ccc(O)c(O)c1)C(=O)O; experiment: Activity of mushroom tyrosinase; conditions: Agaricus bisporus
[4] = substrate: O=C(CCCCC1CCS[Zn]S1)NC(Cc1c[nH]cn1)C(=O)O; conditions: Agaricus bisporus; 1.3 uM
Description: Activity of mushroom tyrosinase at 1.3 uM

Row | Activity [1] | IC50 (Tyrosinase) [nM] | inhibition [2] [%] | Molecule | inhibition at 75 µM (B16) [%] | Km [3] [µM] | Km [4] [µM]
1 | – | – | – | OC[C@H]1O[C@H](Oc2ccc(O)cc2)[C@H](O)[C@@H](O)[C@@H]1O | 38.3 | – | –
2 | Active | – | – | O=C(O)CCCC[C@@H](S)CCS [DIHYDROLIPOIC ACID] | 36.3 | – | –
3 | Active | 1300 | 82.9 | O=C(CCCCC1CC[S][Zn][S]1)NC(Cc1c[nH]cn1)C(=O)O (centres undefined) [SODIUM ZINC DIHYDROLIPOYLHISTIDINATE] | 41.5 | – | –
4 | – | – | – | Tyrosinase (Agaricus bisporus), O42713 (protein) MSLIATVGPTGGVKNRLNIVDFVKNEKFFTLYVRSLELLQAKEQHDYSSFFQLAGIHGLPFTEWAKERPSMNLYKAGYCTHGQVLFPTWHRTYLSVLEQILQGAAIEVAKKFTSNQTDWVQAAQDLRQPYWDWGFELMPPDEVIKNEEVNITNYDGKKISVKNPILRYHFHPIDPSFKPYGDFATWRTTVRNPDRNRREDIPGLIKKMRLEEGQIREKTYNMLKFNDAWERFSNHGISDDQHANSLESVHDDIHVMVGYGKIEGHMDHPFFAAFDPIFWLHHTNVDRLLSLWKAINPDVWVTSGRNRDGTMGIAPNAQINSETPLEPFYQSGDKVWTSASLADTARLGYSYPDFDKLVGGTKELIRDAIDDLIDERYGSKPSSGARNTAFDLLADFKGITKEHKEDLKMYDWTIHVAFKKFELKESFSLLFYFASDGGDYDQENCFVGSINAFRGTAPETCANCQDNENLIQEGFIHLNHYLARDLESFEPQDVHKFLKEKGLSYKLYSRGDKPLTSLSVKIEGRPLHLPPGEHRPKYDHTQARVVFDDVAVHVIN | – | 860 | 4.1
